Results taken from patent US20070275935A1, “Estratriene Derivatives” (priority 2003, published 2007).

Columns and labels:
[1] = system: mice (C57BL/6) sensitised to ovalbumin; test: Airway hyperresponsiveness to methacholine in ovalbumin-sensitised mice; type: in vivo; settings: ovalbumin-challenged mice; for airway reactivity to intravenous methacholine (change in respiratory resistance) (FIG. 8): 50 mg/kg/day intraperitoneally; for airway reactivity to intravenous methacholine (change in respiratory resistance) (FIG. 9): 50 mg/kg/day orally
Method: Conscious female mice (C57BL/6) of 6-8 weeks of age were sensitised by a 0.2 ml intraperitoneal injection of 50 ug ovalbumin (in 10 mg/ml aluminium hydroxide) on day 0 and 12. and subsequently challenged with an aerosol of OVA (1% w/v)/FCS (5% v/v) on days 20-28 for 30 minutes. The aerosol exposures were achieved by placing the rodents in a whole body plethysmograph apparatus and then nebulising the […] into the chamber through a port located on the top of the chamber. The aerosol exited the chamber via a bias flow into a particle trap.
Drug treatments were administered to assess the effects of drugs on the development of airway hyperresponsiveness. Drug treatment commenced the day prior (day 19) to the first exposure to OVA (day 20) and continued throughout the period during which the mice were challenged with OVA. Drug treatment comprised 4NO or 2MEO, each at 50 mg/kg administered once daily 2h before OVA exposure to either intraperitoneally or orally in a vehicle of 10% DMSO/90% peanut oil in a volume of 100 μL.
After the 26-28 day sensitisation and challenge protocol, airway obstruction in response to the bronchoconstrictor methacholine was measured. The mice were anaesthetised with a mixture of ketamine/xylazine. A tracheostomy was performed, and a catheter placed in the jugular vein to administer methacholine intravenously. The mouse was then be placed in a whole body plethysmograph and mechanically ventilated (150 breaths/min at a tidal volume of 10 ml/kg). The transpulmonary pressure was measured with a differential pressure transducer with one port attached to the interior of the plethysmograph and the other to the intratracheal cannula. The airflow rate was measured with a pneumotachograph.
The change in airways resistance in response to intravenous methacholine (1-1000 μg/kg, given 4 minutes apart) was calculated on-line with a Buxco pulmonary mechanics analyzer.
The effects of treatment of ovalbumin-challenged mice (veh-OVA) with either 2MEO or 4NO, provided intraperitoneally at 50 mg/kg/day on airway reactivity to intravenously administered methacholine are shown in FIG. 8. Data are expressed as the change in respiratory resistance from the baseline level and are presented as the mean and standard error of the mean.
OVA challenge (veh-OVA) increased the airway reactivity to methacholine compared to that detected in non-challenged mice (veh-SAL).

Airway fibroblasts = test: bFGF-induced proliferation of airway fibroblasts from airway biopsies; type: cell-based; settings: 3 μM
Excerpt: Airway fibroblasts were also obtained by explant culture from airway biopsies.

HASM cells = test: bFGF-induced HASM proliferation over 7 days on plastic or collagen-coated silastic, comparison with dexamethasone; type: cell-based, human; settings: 1 μM, bFGF 300 pM
Method: We examined the effects of 4NO (1 μM) and the glucocorticoid dexamethasone (Dex, 100 nM) on the proliferation of HASM cells in response to bFGF (300 pM). Dexamethasone is a commonly used anti-inflammatory glucocorticoid. Cells were cultured on a standard plastic tissue culture plate. The test compounds were pre-incubated with HASM for 30 minutes before the addition of bFGF. The incubation continued for 7 days before cell enumeration (FIG. 5). Data are expressed as a percentage of the cell number in vehicle treated wells and are presented as the mean and standard error of the mean.
The response of HASM cells grown on a collagen extracellular matrix to the glucocorticoids and test compounds was also examined. Cells were cultured on a collagen-coated silastic base. HASM cells were pre-incubated with the test compounds for 30 minutes before the addition of bFGF (300 pM). The incubation continued for 7 days before cell enumeration (FIG. 6). Data are expressed as a percentage of the cell number in vehicle treated wells and are presented as the mean and standard error of the mean.

[2] = system: human breast tumour cell line, MCF7; test: Proliferation of MCF7 cells in response to 5% FCS or EGF; type: cell-based; settings: for effect on proliferation of MCF7 cells, in words (FIG. 3): 5% FCS or EGF 300 pM
Method: The effects of 4NO were evaluated in a number of non-smooth muscle cell types including the type II airway epithelial cell line, A549 (ATCC accession number ATCC CCL-185 Lung carcinoma human) (FIG. 2); the human breast tumour cell line, MCF7, (ATTC accession number ATCC HTB-22 breast adenocarcinoma, human) which expresses the estrogen receptor (FIG. 3); and in bovine aortic endothelial cells (BAEC) (FIG. 4).
The effects of test compounds were examined on proliferation of A549 cells in response to 5% fetal calf serum (FCS). Analogues were pre-incubated with A549 cells for 30 min before the addition of FCS. The incubation continued for 48 h before cell enumeration. Data are expressed as a percentage of the cell number in vehicle treated wells and are presented as the mean and standard error of the mean. Similarly the effects of 2MEO and 4NO on proliferation of MCF7 in response to 5% FCS or epidermal growth factor (EGF, 300 pM) were examined, as were the effects of 2MEO and 4NO on proliferation of BAEC in response to 5% FCS. The incubation parameters were the same as described above and results are presented as the mean and standard error of the mean.
This assay was also used to evaluate the ability of other compounds to inhibit the proliferation of non-smooth muscle cells MCF7 and A549 (described above) in response to 5% FCS. The results of this assay are presented in Table 4 (columns G and H respectively). The potency of the compounds was considerably less in inhibiting proliferation of these cell lines than it was for HASM. These observations support the contention that there are cell type-specific targets for the actions of these compounds. Such assays may also be adopted to examine the effect of other disclosed compounds on these cells or on other non-smooth muscle cells of interest.

Row | Compound | airway reactivity to intravenous methacholine (change in respiratory resistance) (FIG. 8) [1] | airway reactivity to intravenous methacholine (change in respiratory resistance) (FIG. 9) [1] | reduction of bFGF (300 pM) induced proliferation (Airway fibroblasts) [%] | effect on bFGF-induced HASM proliferation on collagen (FIG. 6) (HASM cells; collagen-coated silastic) | effect on bFGF-induced HASM proliferation on plastic (FIG. 5) (HASM cells; plastic tissue culture plate) | effect on proliferation of MCF7 cells, in words (FIG. 3) ([2]; concentrations below 3 μM) | effect on proliferation of MCF7 cells, in words (FIG. 3) ([2]; concentration not given) | MCF7 pIC50 ([2]; proliferation in response to 5% FCS, pIC50 of 4.00 = inactive)
1 | COc1cc2c(cc1O)C(=NOCc1ccc([N+](=O)[O-])cc1)C[C@@H]1[C@@H]2CC[C@]2(C)[C@@H](O)CC[C@@H]12 [CP-DM-2-11-7, 2-methoxy-6-(4-nitrobenzyloxy)iminoestradiol] | able to reduce the increase in respiratory resistance | able to reduce the increase in respiratory resistance | 55±20 | retained its effectiveness as an anti-proliferative agent | markedly reduced the increase in HASM cell number to levels below that of dexamethasone | no detectable effect | – | –
2 | COc1cc2c(cc1O)C(=NOCc1ccc([N+](=O)[O-])cc1)C[C@@H]1[C@@H]2CC[C@]2(C)C(=NO)CC[C@@H]12 [CP-DM-3-91, 2-methoxy-6-(4-nitrobenzyloxy)iminoestrone-17-oxime] | – | – | 50±24 | – | – | – | – | –
3 | COc1cc2c(cc1O)CC[C@@H]1[C@@H]2CC[C@]2(C)[C@@H](O)CC[C@@H]12 [2-methoxyestradiol, reference compound] | able to reduce the increase in respiratory resistance | able to reduce the increase in respiratory resistance | – | – | – | – | effective inhibitor | 5.40
